ChEMBL document CHEMBL1136940, “Design and implementation of an ribonucleic acid (RNA) directed fragment library” (J Med Chem, 2009)
Blank lines part the entries; values can stand above or below the compound they belong to. The source made the active and inactive calls. No cut-off for these calls is given here. *1 amine or outer side, *2 acyl side, *3 side chain or, on linkers, in order; H or OH if unused. Where a SMILES comes first, the peptide text is derived from it. Bridges are numbered along the chain shown (N, C = ends). [ ]: non-standard residue; d: D form. The star is where a group is joined. X1 = NC1=N[C@@H]([C@H](N[*:1])C(=O)[*:2])C[C@H](O)N1; ΔAla(Z-3-ureido) = NC(=O)N/C=C(\N)C(=O)O; β3hOrn = NCCC[C@H](N)CC(=O)*; Dap = NC[C@H](N)C(=O)O

Key:
Type in all cases: nucleic-acid assay
Nucleic Acid [1] = experiment: Binding affinity to A-site RNA
Nucleic Acid [2] = experiment: Binding affinity to RNA ribosome intersubuint bridge
Nucleic Acid [3] = experiment: Binding affinity to Escherichia coli 23S rRNA L11 binding domain
Nucleic Acid [4] = experiment: Binding affinity to small bacterial subunit RNA
Nucleic Acid [5] = experiment: Binding affinity to RNAse P
Nucleic Acid [6] = experiment: Binding affinity to Escherichia coli 23S rRNA L11 binding domain in presence of protein
Nucleic Acid [7] = experiment: Displacement of gentamycin from RNA bulge site of Escherichia coli 16S ribosomal 27-nucleotide A-site RNA by water Logsy NMR spectroscopy based noncompetitive binding assay
Nucleic Acid [8] = experiment: Displacement of gentamycin from RNA bulge site of Escherichia coli 16S ribosomal 27-nucleotide A-site RNA by T2 filter NMR spectroscopy based competitive binding assay
Nucleic Acid [9] = experiment: Binding affinity to ribosome/exit tunnel RNA region
Nucleic Acid [10] = experiment: Displacement of gentamycin from Escherichia coli 16S ribosomal 27-nucleotide A-site RNA by water Logsy NMR spectroscopy based competitive displacement assay
Nucleic Acid [11] = experiment: Displacement of gentamycin from Escherichia coli 16S ribosomal 27-nucleotide A-site RNA by T2 filter NMR spectroscopy based competitive displacement assay

Kd (Nucleic Acid [1]): 50 nM
SMILES: NCC[C@H](O)C(=O)N[C@@H]1C[C@H](N)[C@@H](O[C@H]2O[C@H](CN)[C@@H](O)[C@H](O)[C@H]2O)[C@H](O)[C@H]1O[C@H]1O[C@H](CO)[C@@H](O)[C@H](N)[C@H]1O [AMIKACIN]

Kd (Nucleic Acid [1]): 60 nM
SMILES: NC[C@H]1O[C@H](O[C@H]2[C@H](O)[C@@H](O[C@H]3O[C@H](CO)[C@@H](O)[C@H](N)[C@H]3O)[C@H](N)C[C@@H]2N)[C@H](N)[C@@H](O)[C@@H]1O [BEKANAMYCIN]

Kd (Nucleic Acid [1]): 60 nM
SMILES: CN[C@@H]1[C@@H](O[C@H]2O[C@H](CO)[C@@H](N)[C@H](O)[C@H]2O)OC2C[C@@H](N)[C@@H](O[C@H]3[C@H](O)[C@@H](O)[C@H](N)C[C@@H]3N)OC2[C@@H]1O (stereo partly drawn) [APRAMYCIN]

Kd (Nucleic Acid [2]): < 3000 nM
SMILES: NCCC[C@H](N)CC(=O)N[C@H]1CNC(=O)[C@H]([C@H]2C[C@H](O)NC(N)=N2)NC(=O)/C(=C/NC(N)=O)NC(=O)[C@H](CO)NC(=O)[C@H](CO)NC1=O [VIOMYCIN] (β3hOrn-[Dap]SS[ΔAla(Z-3-ureido)][X1]; lactam 1-C)

SMILES: CN[C@@H]1[C@@H](O)[C@@H](O[C@@H]2[C@@H](O)[C@H](O[C@H]3O[C@H]([C@@H](C)O)[C@@H](O)[C@H](O)[C@H]3N)[C@@H](N)C[C@H]2N)OC[C@]1(C)O [GENETICIN]
Kd (Nucleic Acid [1]): < 100 nM

Kd (Nucleic Acid [1]): 60 nM
SMILES: NC[C@@H]1O[C@H](O[C@H]2[C@@H](O)[C@H](O[C@@H]3[C@@H](O)[C@H](N)C[C@H](N)[C@H]3O[C@H]3O[C@H](CN)[C@@H](O)[C@H](O)[C@H]3N)O[C@@H]2CO)[C@H](N)[C@@H](O)[C@@H]1O [FRAMYCETIN]

Kd (Nucleic Acid [1]): 100 nM
SMILES: NC[C@@H]1O[C@@H](O[C@H]2[C@H](O)[C@@H](O[C@H]3O[C@H](CO)[C@@H](O)[C@H](N)[C@H]3O)[C@H](N)C[C@@H]2N)[C@@H](O)[C@H](O)[C@H]1O [KANAMYCIN A]

SMILES: C=C(NC(=O)c1csc(-c2nc3c(cc2O)-c2nc(cs2)C(=O)NC(C(C)O)C(=O)N/C(=C\C)c2nc(cs2)C(=O)NC2CC(O)C(=O)OCc4cccc5[nH]c(c(C)c45)C(=O)SCC(NC(=O)c4csc2n4)c2nc-3cs2)n1)C(N)=O (stereo not drawn) [NOSIHEPTIDE]
Kd (Nucleic Acid [3]): < 3000 nM

Kd (Nucleic Acid [4]): < 12 µM
SMILES: CN[C@@H]1[C@H](O[C@H]2[C@H](O[C@H]3[C@H](O)[C@@H](O)[C@H](N=C(N)N)[C@@H](O)[C@@H]3N=C(N)N)O[C@@H](C)[C@]2(O)C=O)O[C@@H](CO)[C@H](O)[C@H]1O [STREPTOMYCIN]

Kd (Nucleic Acid [5]): 20 µM
SMILES: NC(=O)Cc1ccccn1 [PYRIDINE ACETAMIDE]

SMILES: C=C(NC(=O)C(=C)NC(=O)c1csc(C2=N[C@@H]3c4csc(n4)[C@H]4NC(=O)c5csc(n5)[C@H]([C@](C)(O)[C@@H](C)O)NC(=O)[C@H]5CSC(=N5)/C(=C/C)NC(=O)[C@H]([C@@H](C)O)NC(=O)c5csc(n5)[C@]3(CC2)NC(=O)[C@H](C)NC(=O)C(=C)NC(=O)[C@H](C)NC(=O)[C@H]([C@@H](C)CC)N[C@@H]2C=Cc3c([C@H](C)O)cc(nc3[C@H]2O)C(=O)O[C@@H]4C)n1)C(N)=O [THIOSTREPTON]
Kd (Nucleic Acid [3]): 1300 nM | Kd (Nucleic Acid [6]): < 50 nM

Kd (Nucleic Acid [1]): 1700 nM
SMILES: NC[C@H]1O[C@H](O[C@H]2[C@H](O[C@@H]3O[C@H](CO)[C@@H](O)[C@H]3O)[C@@H](O)[C@H](N)C[C@@H]2N)[C@H](N)[C@@H](O)[C@@H]1O [RIBOSTAMYCIN]

Kd (Nucleic Acid [1]): 80 nM
SMILES: NC[C@H]1O[C@H](O[C@H]2[C@H](O)[C@@H](O[C@H]3O[C@H](CO)[C@@H](O)[C@H](N)[C@H]3O)[C@H](N)C[C@@H]2N)[C@H](N)C[C@@H]1O [TOBRAMYCIN]

SMILES: c1ccc2nc3ccccc3cc2c1
Activity (Nucleic Acid [7]): Active | Activity (Nucleic Acid [8]): Active

Kd (Nucleic Acid [9]): 2.75 nM
SMILES: CC[C@H]1OC(=O)C[C@@H](O)[C@H](C)[C@@H](O[C@@H]2O[C@H](C)[C@@H](O[C@H]3C[C@@](C)(O)[C@@H](O)[C@H](C)O3)[C@H](N(C)C)[C@H]2O)[C@@H](CC=O)C[C@@H](C)C(=O)/C=C/C(C)=C/[C@@H]1CO[C@@H]1O[C@H](C)[C@@H](O)[C@@H](OC)[C@H]1OC [TYLOSIN]

Activity (Nucleic Acid [10]): Active | Activity (Nucleic Acid [11]): Active
SMILES: Cc1cc(N(C)C)nc2cc(N)ccc12

Kd (Nucleic Acid [1]): 28 nM
SMILES: NC[C@@H]1O[C@H](O[C@H]2[C@@H](O)[C@H](O[C@@H]3[C@@H](O)[C@H](N)C[C@H](N)[C@H]3O[C@H]3O[C@H](CO)[C@@H](O)C[C@H]3N)O[C@@H]2CO)[C@H](N)[C@@H](O)[C@@H]1O[C@H]1O[C@H](CO)[C@@H](O)[C@H](O)[C@@H]1O [LIVIDOMYCIN]

SMILES: NC[C@@H]1O[C@H](O[C@H]2[C@@H](O)[C@H](O[C@@H]3[C@@H](O)[C@H](N)C[C@H](N)[C@H]3O[C@H]3O[C@H](CO)[C@@H](O)[C@H](O)[C@H]3N)O[C@@H]2CO)[C@H](N)[C@@H](O)[C@@H]1O [PAROMOMYCIN]
Kd (Nucleic Acid [1]): < 12000 nM

Activity (Nucleic Acid [10]): Active | Activity (Nucleic Acid [11]): Active
SMILES: N[C@@H]1C[C@H](N)[C@@H](O)[C@H](O)[C@H]1O
